Consider 1 substance from patent US11191811B2, “Osteocalcin as a treatment for frailty associated with aging” (THE TRUSTEES OF COLUMBIA UNIVERSITY IN THE CITY OF NEW YORK, priority 2014, dated 2021).

Entries after “also recorded” stand apart in the source; their conditions may differ.

The test system of experiment [1] is Gprc6a−/− myotubes. In words: 3H-2-deoxyglucose uptake in myotubes. The format is cell-based, mouse. As to conditions: serum-free conditions. The protocol:
(§1) The main nutrient used by muscle to generate energy at the onset of exercise is glucose and osteocalcin increased the uptake of ^3H-2-deoxyglucose (^3H-2DG) in WT but not in Gprc6a−/− myotubes (FIG. 26D-E). To exclude the involvement of other secreted molecules, this experiment was performed in serum-free conditions. […] This decrease in glucose uptake in muscles of Gprc6aMck−/− mice provides an explanation for why blood glucose levels were two-fold higher in Gprc6aMck−/− and Gprc6aHsa−/− than in control mice after exercise (FIG. 26G-H).
(§2) Glucose and insulin tolerance tests were performed as previously described (Lee et al., 2007, Cell 130:456-469). For in vivo glucose uptake, a bolus of 2-deoxy-d-[^3H]glucose (^3H-2-DG, Perkin Elmer) (10 μCi) was administered before an endurance run. ^3H-2-DG and ^3H-2-DG-6-P content in muscle was determined by liquid scintillation counter and normalized to muscle weight. Glucose uptake and fatty acid oxidation assays in myotubes were performed as previously described (Sebastian et al., 2007, Am. J. Physiol. Endocrinol. Metab. 292:E667-686). GLUT4 translocation was determined by flow cytometry using an antibody against the extracellular domain of the GLUT4 protein (Santa Cruz, Sc-1606). Measurements of oxygen consumption rates (OCR) in isolated myofibers were performed using a XF24 Seahorse Analyzer® (Seahorse Biosciences). To analyze mitochondrial function, myofibers were treated with three compounds in succession (oligomycin 10 μg/ml, FCCP 200 μM, rotenone 0.2 μM) and OCR was recorded following administration of each of them.
(§3) Culture of skeletal muscle myoblasts from 7 day-old mice was performed as described (Gharaibeh et al., 2008, Nature Protocols 3:1501-1509). Myoblasts were differentiated into myotubes for 3-4 days in a medium containing 5% horse serum. Muscle fibers were isolated from flexor digitorum brevis muscle. Muscles were dissected with DMEM 2% collagenase for 2 hours at 37° C., in a 5% CO2 incubator. […]

The subject of experiment [2] is WT myotubes. The experiment is described as follows: 3H-2-deoxyglucose uptake in myotubes. Format: cell-based, mouse. Here is the method:
as §1, §2, §3

The subject of experiment [3] is muscles of WT mice. The experiment is described as follows: Western blot of Akt, AMPK and HSL phosphorylation in muscles of WT mice given Ocn. Format: in vivo, mouse. Here is the method: FIG. 31. Osteocalcin treatment increases muscle function in young and old WT mice. (A-B) Performance during endurance exercise of 3 month-old WT, Gprc6af/f and Gprc6aMck−/− female mice treated with Ocn (n=6-10 per group). (C) Performance during endurance exercise of 12 and 15 month-old WT female mice treated with Ocn (n=6-10 per group). (D) Western blot analysis of Akt phosphorylation (Ser473) in muscles of WT mice injected with Ocn (500 ng/g) after a single bout of exercise. (E) Western blot analysis of AMPK phosphorylation ([…]) in muscles of WT mice injected with Ocn (500 ng/g) after a single bout of exercise. (F) Western blot analysis of HSL phosphorylation (Ser563) in muscles of WT mice injected with Ocn (500 ng/g) after a single bout of exercise. (G) Uptake of ^3H-2-DG in glycolytic (Gly—white quadriceps) and oxidative (Ox—red quadriceps) muscles after a single bout of exercise in 15 month-old WT mice receiving Ocn before running (n=5 per group). (H) Performance during endurance exercise of 10 month-old WT mice receiving Ocn for 28 days (n=7 per group). (I) Expression of Cd36, Fatp1 and Cpt1b in gastrocnemius of 10 month-old WT mice receiving Ocn for 28 days (n=7 per group). (J) Western blot analysis of Akt phosphorylation (Ser473) in muscles of WT mice receiving Ocn for 28 days (n=7 per group). (K) Schematic representation of how osteocalcin signaling in myofibers and IL-6 cooperate to increase exercise capacity.
To determine if osteocalcin has the same ability in older mice, 12 and 15 month-old mice that have low circulating osteocalcin levels were injected prior to running with 500 ng/g of body weight of osteocalcin in order to raise their circulating levels substantially. […] This was due to an increase in the phosphorylation of Akt, AMPK and HSL, as well as in glucose uptake, that occurred to a greater extent in oxidative muscles that express Gprc6a at the highest level, than in glycolytic muscles (FIG. 31C-F). Whether chronic delivery of osteocalcin through mini-pumps (90 ng/hour) for 28 days would increase muscle function in 9 month old mice that have the lowest circulating osteocalcin levels was also tested. […] This improved ability to perform exercise was caused in part by an increase in the expression in muscle of the fatty acid transporter Fatp1 and an activation of the Akt pathway (FIG. 31H-).

The test system of experiment [4] is Leydig cells. The experiment is described as follows: Testosterone production by testis explants or primary Leydig cells. The format is cell-based, mouse. As to conditions: recombinant uncarboxylated osteocalcin 0-100 ng/ml of culture medium (FIG. 10). The protocol: FIG. 10. Osteocalcin favors male fertility by increasing testosterone production by Leydig cells. (A-B) Testosterone production by testis explants (A) or primary Leydig cells (B) cultured in the presence of supernatants of wild type (WT) or Osteocalcin^−/− osteoblast cultures. (C-D) Testosterone production by testis explants (C) or primary Leydig cells (D) following stimulation with increasing doses of recombinant uncarboxylated osteocalcin (0, 0.3, 1, 3, 10, 100 ng/ml of culture medium). (E) Circulating testosterone levels in WT mice 1 hour, 4 hours, and 8 hours after vehicle or recombinant uncarboxylated osteocalcin (3 ng/g of body weight) injection. (F-G) Comparison between the average litter size (F) and frequency (G) generated by WT, Osteocalcin^−/−, or Esp^−/− male littermate mice crossed with WT females (breeding was tested from 6 to 16 weeks of age). (H-L) Testis size (H), testis weight (I), epididymides weight (J), seminal vesicles weight (K), and sperm count (L) in Osteocalcin^−/− and Esp^−/− compared to WT littermate mice. (M) Circulating steroid sex hormone levels in Osteocalcin^−/− and Esp^−/− compared to WT littermate mice. The analyses were performed on breeder and non-breeder mice. Error bars represent SEM. Student's t test (*) P<0.05, (**) P<0.001.

For experiment [5], the system named is muscle. The experiment is described as follows: S6K phosphorylation and protein synthesis. As to conditions: FIG. 23; for protein synthesis: in muscle. The text has this: FIG. 23. Osteocalcin promotes S6K phosphorylation and protein synthesis.
It has been shown that in muscle osteocalcin favors glucose uptake, glycolysis, fatty acid oxidation, and protein synthesis.

[6] abbreviates: WT mice injected with Ocn (500 ng/g), after a single bout of exercise, listed as osteocalcin.

“uncarboxylated osteocalcin: Recombinant uncarboxylated mouse osteocalcin, bacterially produced, purified on glutathione beads and cleaved from the GST subunit by thrombin (YLGASVPSPDPLEPTREQCELNPACDELSDQYGLKTAYKRIYGITI)”: the “uptake of 3H-2-deoxyglucose (3H-2DG)” value is listed as “not” in experiment [1] and “increased” in experiment [2] (WT myotubes, serum-free conditions). Further, the glucose uptake result in experiment [2] (as worded in FIG. 19 (wild-type) and summary (in muscle)) is “favors”. The “phosphorylation of AMPK in muscle” value in experiment [3] (WT mice injected with Ocn (500 ng/g), after a single bout of exercise) is “increase”. Moreover, the “phosphorylation of Akt in muscle” value in experiment [3] (WT mice injected with Ocn (500 ng/g), after a single bout of exercise, listed as Osteocalcin) is listed as “induced”; in experiment [3] (setting [6]) it was “increase”. The “phosphorylation of HSL (Ser563) in muscle” value in experiment [3] (setting [6]) is given as “enhanced; also recorded: increase”. The “Akt pathway in muscle” value in experiment [3] (mini-pumps 90 ng/hour for 28 days) was “activation”. Moreover, the “testosterone production by Leydig cells” value in experiment [4] is “increasing”. Besides, the S6K phosphorylation entry in experiment [5] was “promotes”. In addition, the protein synthesis result is listed as “promotes” in experiment [5] (listed as Osteocalcin) and “favors” in experiment [5] (listed as osteocalcin).
